The supplement of paper PMC10307832

Tests used:
Assay in all cases: relative viability (nuclei count vs DMSO), 5 days (fraction); higher = more cells survive
[1] = compound: O=S(=O)(c1ccccc1)N(CC(F)(F)F)c1ccc(C(O)(C(F)(F)F)C(F)(F)F)cc1 + COc1cc2c(Oc3ccc(NC(=O)C4(C(=O)Nc5ccc(F)cc5)CC4)cc3F)ccnc2cc1OCCCN1CCOCC1 [Foretinib] (partner 0.25 µM)
Method in brief: (§1)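 Cells from lung cancer lines were seeded into 1536-well plates and, one day later, dosed by pin tool. Treatments were either a single drug or a fixed dose of an anchor drug with five library-drug doses (not always all listed) in √10 steps. After 5 days, nuclei were stained in a one-step fixation (final 0.05% Triton X-100, 1% formaldehyde, 1 ug/ml Hoechst) and counted on 4× images, and relative viability is the treated-to-vehicle nuclei ratio, as the median of duplicate plates.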

[2] = compound: O=S(=O)(c1ccccc1)N(CC(F)(F)F)c1ccc(C(O)(C(F)(F)F)C(F)(F)F)cc1 + CC(C)C[C@H](NC(=O)[C@H](Cc1ccccc1)NC(=O)c1cnccn1)B(O)O [Bortezomib] (partner 0.002 µM)
Method in brief: as §1

RO-3306 + Bortezomib = compound: C1=CC2=C(C=CC(=C2)C=C3C(=O)NC(=NCC4=CC=CS4)S3)N=C1 [RO-3306] + CC(C)C[C@H](NC(=O)[C@H](Cc1ccccc1)NC(=O)c1cnccn1)B(O)O [Bortezomib] (partner 0.002 µM)
Method in brief: as §1

[3] = compound: O=S(=O)(c1ccccc1)N(CC(F)(F)F)c1ccc(C(O)(C(F)(F)F)C(F)(F)F)cc1 + Cc1nc(Nc2ncc(C(=O)Nc3c(C)cccc3Cl)s2)cc(N2CCN(CCO)CC2)n1 [Dasatinib] (partner 0.075 µM)
Method in brief: as §1

[4] = compound: O=S(=O)(c1ccccc1)N(CC(F)(F)F)c1ccc(C(O)(C(F)(F)F)C(F)(F)F)cc1 + CCNC(=O)c1noc(-c2cc(C(C)C)c(O)cc2O)c1-c1ccc(CN2CCOCC2)cc1 [Luminespib] (partner 0.01 µM)
Method in brief: as §1

| Cell Line | relative viability ([1]; first compound 0.8 µM) | relative viability ([1]; first compound 2.53 µM) | relative viability ([1]; first compound 8 µM) | relative viability ([2]; first compound 0.8 µM) | relative viability ([2]; first compound 2.53 µM) | relative viability ([2]; first compound 8 µM) | relative viability (RO-3306 + Bortezomib; first compound 0.01 µM) | relative viability (RO-3306 + Bortezomib; first compound 0.03162 µM) | relative viability (RO-3306 + Bortezomib; first compound 0.1 µM) | relative viability (RO-3306 + Bortezomib; first compound 0.3162 µM) | relative viability (RO-3306 + Bortezomib; first compound 1 µM) | relative viability ([3]; first compound 0.8 µM) | relative viability ([3]; first compound 2.53 µM) | relative viability ([3]; first compound 8 µM) | relative viability ([4]; first compound 0.8 µM) | relative viability ([4]; first compound 2.53 µM) | relative viability ([4]; first compound 8 µM) |
| --- | --- | --- | --- | --- | --- | --- | --- | --- | --- | --- | --- | --- | --- | --- | --- | --- | --- |
| EBC-1 | 0.0993 | 0.114 | 0.126 | 0.405 | 0.357 | 0.415 | 0.616 | 0.5 | 0.501 | 0.529 | 0.572 |  |  |  |  |  |  |
| EKVX | 0.751 | 0.479 | 0.82 | 1.1 | 0.918 | 1.15 | 1.23 | 0.923 | 1.06 | 1.12 | 0.989 | 0.525 | 0.514 | 0.335 | 0.84 | 0.576 | 0.73 |
| EMC-BAC-2 | 1.22 | 1.04 | 0.954 | 1.07 | 1.1 | 1.02 | 1.21 | 0.912 | 1.11 | 1.06 | 1.01 | 0.368 | 0.325 | 0.353 | 1.28 | 1.18 | 1.17 |
| EPLC-272H | 0.544 | 0.599 | 0.702 | 0.964 | 0.899 | 0.656 | 0.735 | 0.526 | 0.825 | 0.769 | 0.843 | 0.323 | 0.398 | 0.384 | 0.166 | 0.497 | 0.265 |
| H3255 | 0.866 | 0.673 | 0.786 | 0.564 | 0.708 | 0.761 | 0.747 | 0.707 | 0.738 | 0.792 | 0.677 | 0.292 | 0.309 | 0.362 | 0.734 | 0.753 | 0.767 |
| HARA | 0.845 | 0.782 | 0.849 | 1.12 | 1.04 | 1.04 | 1.15 | 0.74 | 1.11 | 1.11 | 0.991 | 0.294 | 0.287 | 0.242 | 0.652 | 0.263 | 0.414 |
| HCC-15 | 1.03 | 0.951 | 0.847 | 1.08 | 0.923 | 0.948 | 1.04 | 0.804 | 1.01 | 1.06 | 0.727 | 0.616 | 0.496 | 0.539 | 0.299 | 0.233 | 0.245 |
| HCC-44 |  |  |  | 1.06 | 0.871 | 0.863 | 0.879 | 0.914 | 0.926 | 0.882 | 0.711 |  |  |  |  | 1.13 | 1.08 |
| HCC-78 | 0.533 | 0.459 | 0.466 | 0.531 | 0.39 | 0.52 | 0.433 | 0.362 | 0.511 | 0.572 | 0.543 | 0.374 | 0.336 | 0.919 |  |  |  |
| HCC-366 | 0.96 | 0.937 | 1.04 | 1.23 | 1.08 | 1.08 | 1.05 | 0.633 | 1.01 | 1.16 | 1.06 | 0.856 | 0.674 | 0.606 |  |  |  |
